Reference: ChEMBL document CHEMBL1152241, “Synthesis and recovery of high bioactive phenolics from table-olive brine process wastewater” (Bioorg Med Chem, 2008)
In brackets after ≈: the same amount, converted by molar mass. Activity calls are given as the source filed them. The calls are words filed in the database; no cut-off is given here.

Assays:
[1] = system: Radical scavenging activity; experiment: Antioxidant activity assessed as DPPH radical scavenging activity after 30 mins; type: functional
[2] = Antioxidant activity assessed as trolox equivalent of ABTS radical scavenging activity; type: functional
Pseudomonas aeruginosa = experiment: Antibacterial activity against Pseudomonas aeruginosa ATCC 15442 after 24 to 72 hrs at 30 degC by broth dilution susceptibility test; type: functional
Candida albicans = experiment: Antifungal activity against Candida albicans ATCC 10231 after 24 to 72 hrs at 28 degC by broth dilution susceptibility test; type: functional
Salmonella enterica = experiment: Antibacterial activity against Salmonella enterica CIP 80.39 after 24 to 72 hrs at 37 degC by broth dilution susceptibility test; type: functional
Escherichia coli = experiment: Antibacterial activity against Escherichia coli ATCC 10536 after 24 to 72 hrs at 37 degC by broth dilution susceptibility test; type: functional
Bacillus subtilis = experiment: Antibacterial activity against Bacillus subtilis ATCC 6633 after 24 to 72 hrs at 30 degC by broth dilution susceptibility test; type: functional
DG-75 [3] = experiment: Cytotoxicity against human DG75 cells after 48 hrs by MTT assay; type: functional, cell-based; conditions: for IC50: DG-75, 48 h
[4] = Antioxidant activity assessed as ferric ion reducing activity by FRAP assay; type: functional
HeLa [5] = experiment: Cytotoxicity against human HeLa cells after 48 hrs by MTT assay; type: functional, cell-based
Aspergillus niger = experiment: Antifungal activity against Aspergillus niger ATCC 16404 after 24 to 72 hrs at 28 degC by broth dilution susceptibility test; type: functional
PBL = experiment: Cytotoxicity against human PBL after 48 hrs by MTT assay; type: cell-based
Staphylococcus aureus = experiment: Antibacterial activity against Staphylococcus aureus ATCC 9144 after 24 to 72 hrs at 37 degC by broth dilution susceptibility test; type: functional
HeLa [6] = experiment: Antioxidant activity against ferrous ion-induced oxidative stress in human HeLa cells assessed as decrease in malondialdehyde formation at 20 ug/mL pretreated for 4 hrs before Fe2+ challenge by TBARS assay; type: functional, cell-based
HeLa [7] = experiment: Antioxidant activity against ferrous ion-induced oxidative stress in human HeLa cells assessed as decrease in malondialdehyde formation at 10 ug/mL pretreated for 4 hrs before Fe2+ challenge by TBARS assay; type: functional, cell-based
DG-75 [8] = experiment: Antioxidant activity against ferrous ion-induced oxidative stress in human DG75 cells assessed as decrease in malondialdehyde formation at 20 ug/mL pretreated for 4 hrs before Fe2+ challenge by TBARS assay; type: functional, cell-based
DG-75 [9] = experiment: Antioxidant activity against ferrous ion-induced oxidative stress in human DG75 cells assessed as decrease in malondialdehyde formation at 10 ug/mL pretreated for 4 hrs before Fe2+ challenge by TBARS assay; type: functional, cell-based

Q: Which results are given for `CC(=O)OCCc1ccc(OC(C)=O)c(OC(C)=O)c1`?
A: Activity [1]: inactive; Activity [2]: inactive; MIC (Pseudomonas aeruginosa): 250 mg/L (≈ 892 µM); MIC (Candida albicans): 500 mg/L (≈ 1780 µM); MIC (Salmonella enterica): 250 mg/L (≈ 892 µM); MIC (Escherichia coli): 250 mg/L (≈ 892 µM); MIC (Bacillus subtilis): 125 mg/L (≈ 446 µM); Activity (DG-75 [3]): Dose-dependent effect; IC50 (DG-75 [3]): 27 mg/L (≈ 96.3 µM); Activity [4]: inactive; Activity (HeLa [5]): Dose-dependent effect; IC50 (HeLa [5]): 92 mg/L (≈ 328 µM); MIC (Aspergillus niger): 500 mg/L (≈ 1780 µM); Activity (PBL): Not Active

Q: With `Cc1cc(C(C)(C)C)c(O)c(C(C)(C)C)c1` [BUTYLATED HYDROXYTOLUENE] as the molecule, how does the IC50 [1] read?
A: The IC50 was 7.94 mg/L (≈ 36 µM).

Q: What about the Activity [2] of the same molecule?
A: The Activity was 2.37 mmol.

Q: For `OCCc1ccc(O)c(O)c1` [HYDROXYTYROSOL], which IC50 [1] is on record?
A: The IC50 was 3.71 mg/L (≈ 24.1 µM).

Q: And the MIC (Staphylococcus aureus)?
A: Its MIC is 62.5 mg/L (≈ 405 µM).

Q: And the Activity [2]?
A: The Activity was 3.4 mmol.

Q: And the MIC (Pseudomonas aeruginosa)?
A: Its MIC is 125 mg/L (≈ 811 µM).

Q: What about the MIC (Candida albicans) of the same molecule?
A: Its MIC is 125 mg/L (≈ 811 µM).

Q: What about the Activity (HeLa [6]) of the same molecule?
A: Its Activity is “Active”.

Q: What about the MIC (Salmonella enterica) of the same molecule?
A: Its MIC is 125 mg/L (≈ 811 µM).

Q: And the MIC (Escherichia coli)?
A: The MIC was 125 mg/L (≈ 811 µM).

Q: What about the Activity (HeLa [7]) of the same molecule?
A: The Activity was “Active”.

Q: And the Activity (DG-75 [8])?
A: The Activity was “Active”.

Q: What about the MIC (Bacillus subtilis) of the same molecule?
A: The MIC was 62.5 mg/L (≈ 405 µM).

Q: And the Activity (DG-75 [3])?
A: The Activity was “Dose-dependent effect”.

Q: What about the IC50 (DG-75 [3]) of the same molecule?
A: Its IC50 is 58 mg/L (≈ 376 µM).

Q: What about the Activity (DG-75 [9]) of the same molecule?
A: Its Activity is “Active”.

Q: And the Activity [4]?
A: Its Activity is “Active”.

Q: And the Activity (HeLa [5])?
A: Its Activity is “Dose-dependent effect”.

Q: What about the IC50 (HeLa [5]) of the same molecule?
A: Its IC50 is 70 mg/L (≈ 454 µM).

Q: What about the MIC (Aspergillus niger) of the same molecule?
A: The MIC was 250 mg/L (≈ 1620 µM).

Q: What about the Activity (PBL) of the same molecule?
A: The Activity was “Not Active”.
